“Also recorded” adds a separate entry of the source.
Legend:
[1] = biological target: CRBN-DDB1 (cereblon DNA damage-binding protein 1 complex) (Homo sapiens, UniProt Q96SW2); assay: Fluorescence polarization (FP) CRBN-binding assay, direct titration; settings: 1 nM 4c titrated with CRBN-DDB1, triplicates, read-out: dissociation constant (Kd)
Source text: Medicinal chemistry scope was expanded by the synthesis of a few representative linkers, which were elaborated to modalities adorned with a cellular marker, an E3 ligase motif, and a free alcohol function. […] Initially, treatment with Pd(dba)2, dppb, and thiosalicylic acid removed the allyl protecting group to give 2m in 39% yield. The resulting secondary amine was coupled to a bodipy-containing carboxylic acid 3([25]) to afford the Boc-protected linker 4a (82% yield, Scheme 3). Simple Boc removal with acid exposed the secondary amine 4b intermediate, which was coupled to an acid comprising E3 ligand affording 4c. Such modalities have a free “handle” that could be added to a POI-binding ligand of choice, e.g., by substitution chemistry, esterification, or ether formation. […]
(§1) Following incubation, 100 μL per well Promega Nano -Glo HiBiT lytic detection reagent mix (Promega Nano -Glo HiBiT Lytic Detection System #N3050), prepared according to the manufacturer´s instructions in the kit, were added. […] Luminescence was measured using plate reader (BMG L abtech PHERA star).
(§2) Luminescence levels in the treatment wells were normalised to DMSO-treated samples and plotted as percentage of DMSO control in GraphPad Prism (10.2.3).Western blot 5x10^5 HEK293 CRISPR HIBIT BRD4 cells were seeded into 6-well plates 24 hours before treatment. […]
(§3) Fluorescence Polarization (FP). […]

P-gp [2] = assay: Bidirectional permeability (Papp A-B, B-A); type: in vitro ADME; settings: not told
Source text: (§4) Figure S3 . PK data for 7a and 7c.
(§5) (2 pictures or pasted objects on this page, not shown here)

[3] = Bidirectional permeability (Papp A-B, B-A); type: in vitro ADME; settings: for A-B Permeability: class in words; for Papp A→B / Papp B→A: not told; for Papp A→B: A-B direction; for Papp B→A: B-A direction
Source text: as §4, §5

BRD4 long and short = assay: Western blot of BRD4 degradation; type: cell-based
Experimental: Figure 2 Representative Western blot of 7a degradation of BRD4 performed in HEK293 cell line after 18 h treatment. The experiment was done as n = 3 independent biological replicates.
The best analogue, 7a, was next shown, by Western blot, to degrade both BRD4 long and short in the 300–1000 nM range, reversed by the addition of either proteasome or neddylation inhibitors or by thalidomide.
Cell culture. HEK293 CRISPR HIBIT BRD4 cells were generated at CeTPD using CRISPR -CAS technology. Parental HEK293 and HEK293 CRISPR HIBIT BRD4 cell lines were cultured in DMEM media (Gibco), supplemented with 10% fetal bovine serum (FBS), and were kept at 37 °C, 5% CO2 in a humidiﬁed incubator.
BRD4 Degradation A ssays used a HiBiT Lytic assay. […]
as §1, §2, §3

BRD4 = biological target: T1, BRD4 (Homo sapiens, UniProt O60885); assay: BRD4 degradation assay, Promega Nano-Glo HiBiT lytic assay; type: cell-based; settings: HEK293 CRISPR HiBiT BRD4 cell line
T1 construct: endogenous in cells; host or cells: HEK293 CRISPR HiBiT BRD4 (knock-in)
Experimental: Data plotted are average ± SD of n = 3 biological replicates.
HEK293 CRISPR HIBIT BRD4 cells were seeded at 5 X 10^5 cells per well in culture medium into
Plates were incubated at 37 °C, 5% CO2 in a humidiﬁed incubator overnight. Compounds (10 mM stock in DMSO) were diluted to a half-log scale and added to the cells. Plates were further incubated at 37 °C for 18 hours.
Following incubation, 100 μL per well Promega Nano -Glo HiBiT lytic detection reagent mix (Promega Nano -Glo HiBiT Lytic Detection System #N3050), prepared according to the manufacturer´s instructions in the kit, were added. The plates were incubated on an orbital shaker for 10 min. Luminescence was measured using plate reader (BMG L abtech PHERA star).

P-gp [4] = biological target: P-gp (Homo sapiens, UniProt P08183); assay: P-gp substrate classification from efflux ratio; type: in vitro ADME
Source text: as §4, §5

[5] = Microsomal stability (HLM); type: in vitro ADME; settings: human, human liver microsomes
Source text: (§6) Moreover, the solubility of both final compounds was low (5% PBS buffer, saline). These examples were merely chosen to showcase the synthetic potential of the chemistry rather than a medicinal chemistry-focused PROTAC optimization approach for which scope remains to optimize PK properties in future heterofunctional molecules. For example, the alkyne functionality, present in the A^3 products 2a and 2c, although present in a number of marketed, bioactive molecules,[37] even PROTACs,[38] acting as a rigid hydrophobic spacer, can be reduced by catalytic hydrogenation[39] to afford a saturated, more flexible yet possibly less metabolically labile linker.

Solubility = type: physicochemical; settings: for solubility: 5% PBS buffer, saline; for solubility (qualitative remark): visual or general observation
Source text: as §6

Sequence of CRBN-DDB1 (cereblon DNA damage-binding protein 1 complex) (Q96SW2 whole entry): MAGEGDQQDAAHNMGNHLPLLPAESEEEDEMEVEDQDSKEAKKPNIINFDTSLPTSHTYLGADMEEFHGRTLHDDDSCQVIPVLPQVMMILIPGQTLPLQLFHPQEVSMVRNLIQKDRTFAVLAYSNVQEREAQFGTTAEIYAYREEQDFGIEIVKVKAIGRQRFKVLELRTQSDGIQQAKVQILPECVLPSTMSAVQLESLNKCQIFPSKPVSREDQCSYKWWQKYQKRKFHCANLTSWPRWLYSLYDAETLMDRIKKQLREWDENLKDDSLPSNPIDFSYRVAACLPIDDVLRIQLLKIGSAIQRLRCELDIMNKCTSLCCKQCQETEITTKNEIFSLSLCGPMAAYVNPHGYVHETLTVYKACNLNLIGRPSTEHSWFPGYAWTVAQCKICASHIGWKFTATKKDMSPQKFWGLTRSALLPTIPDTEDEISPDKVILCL
Sequence of CRBN-DDB1 (cereblon DNA damage-binding protein 1 complex) (Q16531 whole entry partner): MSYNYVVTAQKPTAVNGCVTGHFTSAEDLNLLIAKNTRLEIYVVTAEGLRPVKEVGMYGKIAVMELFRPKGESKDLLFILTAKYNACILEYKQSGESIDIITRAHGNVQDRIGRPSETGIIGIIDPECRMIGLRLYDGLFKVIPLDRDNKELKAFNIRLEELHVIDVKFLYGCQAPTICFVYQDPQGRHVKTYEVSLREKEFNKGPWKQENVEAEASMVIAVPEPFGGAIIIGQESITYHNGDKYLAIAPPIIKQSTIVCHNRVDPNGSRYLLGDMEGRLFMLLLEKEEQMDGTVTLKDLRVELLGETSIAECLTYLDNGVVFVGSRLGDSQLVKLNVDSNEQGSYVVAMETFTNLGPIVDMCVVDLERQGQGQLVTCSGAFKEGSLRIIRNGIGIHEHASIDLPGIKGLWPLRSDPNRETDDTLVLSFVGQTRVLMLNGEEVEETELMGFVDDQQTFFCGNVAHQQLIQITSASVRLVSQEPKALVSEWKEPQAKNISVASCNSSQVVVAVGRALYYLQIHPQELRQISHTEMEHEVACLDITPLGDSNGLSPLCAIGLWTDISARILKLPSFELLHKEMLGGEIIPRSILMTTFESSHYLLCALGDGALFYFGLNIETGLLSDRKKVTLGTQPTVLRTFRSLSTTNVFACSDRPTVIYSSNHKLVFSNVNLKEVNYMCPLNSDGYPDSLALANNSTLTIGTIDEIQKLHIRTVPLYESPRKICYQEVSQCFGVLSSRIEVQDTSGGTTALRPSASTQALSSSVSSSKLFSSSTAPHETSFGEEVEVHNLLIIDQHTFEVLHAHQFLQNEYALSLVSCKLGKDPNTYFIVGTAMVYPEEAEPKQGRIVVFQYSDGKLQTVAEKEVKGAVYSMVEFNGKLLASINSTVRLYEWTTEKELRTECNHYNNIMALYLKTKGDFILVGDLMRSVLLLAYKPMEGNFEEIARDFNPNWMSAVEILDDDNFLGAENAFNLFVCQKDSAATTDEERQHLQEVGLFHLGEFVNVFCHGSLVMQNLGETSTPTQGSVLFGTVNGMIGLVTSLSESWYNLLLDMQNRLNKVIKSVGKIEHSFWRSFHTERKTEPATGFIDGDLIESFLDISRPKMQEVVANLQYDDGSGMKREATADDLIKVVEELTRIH
Sequence of P-gp (Homo sapiens, UniProt P08183) (P08183 whole entry): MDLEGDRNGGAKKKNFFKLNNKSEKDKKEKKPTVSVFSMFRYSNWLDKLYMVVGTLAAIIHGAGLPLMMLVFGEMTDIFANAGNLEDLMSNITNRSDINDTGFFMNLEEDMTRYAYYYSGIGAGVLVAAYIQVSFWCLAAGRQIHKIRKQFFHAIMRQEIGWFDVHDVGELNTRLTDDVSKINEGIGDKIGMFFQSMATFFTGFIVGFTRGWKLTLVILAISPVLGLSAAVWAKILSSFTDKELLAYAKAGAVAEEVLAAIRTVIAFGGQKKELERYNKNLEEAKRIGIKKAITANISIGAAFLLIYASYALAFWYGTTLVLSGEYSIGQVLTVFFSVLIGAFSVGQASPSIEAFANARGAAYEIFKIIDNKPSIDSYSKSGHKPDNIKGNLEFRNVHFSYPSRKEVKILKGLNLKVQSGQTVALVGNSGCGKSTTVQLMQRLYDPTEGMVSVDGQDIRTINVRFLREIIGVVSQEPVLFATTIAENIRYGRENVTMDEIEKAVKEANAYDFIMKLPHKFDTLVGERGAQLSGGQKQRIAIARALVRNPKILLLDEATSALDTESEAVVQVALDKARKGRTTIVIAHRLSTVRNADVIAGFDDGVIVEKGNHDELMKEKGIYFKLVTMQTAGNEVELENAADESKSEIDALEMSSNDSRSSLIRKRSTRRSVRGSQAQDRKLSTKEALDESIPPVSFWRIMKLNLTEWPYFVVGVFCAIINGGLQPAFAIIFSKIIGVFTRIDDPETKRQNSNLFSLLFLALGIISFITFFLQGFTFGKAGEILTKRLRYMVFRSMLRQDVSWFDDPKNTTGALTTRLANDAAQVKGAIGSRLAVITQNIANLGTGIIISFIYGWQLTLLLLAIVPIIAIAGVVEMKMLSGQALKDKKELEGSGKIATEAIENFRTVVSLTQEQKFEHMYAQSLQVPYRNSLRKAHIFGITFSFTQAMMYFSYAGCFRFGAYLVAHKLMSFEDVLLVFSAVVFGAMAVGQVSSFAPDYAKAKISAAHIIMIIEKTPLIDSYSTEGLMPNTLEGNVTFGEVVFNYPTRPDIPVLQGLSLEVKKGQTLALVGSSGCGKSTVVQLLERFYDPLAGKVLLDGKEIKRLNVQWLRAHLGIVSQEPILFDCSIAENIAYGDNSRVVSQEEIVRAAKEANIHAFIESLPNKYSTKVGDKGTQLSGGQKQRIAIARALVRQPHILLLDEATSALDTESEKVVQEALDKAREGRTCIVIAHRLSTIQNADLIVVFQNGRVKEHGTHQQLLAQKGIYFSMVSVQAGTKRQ

efflux ratio (P-gp [2])	A-B Permeability [3]	Papp A→B [3] [×10⁻⁶ cm/s]	Papp B→A [3] [×10⁻⁶ cm/s]	DC50 (BRD4; 18 h after dosage) [nM]	P-gp Substrate (P-gp [4])	half-life at 1 h [5] [min]	microsomal CLint [5] [µL/min/mg]	solubility (Solubility)	DC50 (BRD4; 18 h) [nM]	Compound	Kd [1] [nM]	degradation on addition of proteasome or neddylation inhibitors or thalidomide (BRD4 long and short; 10 µM 7a with 10 µM MG132, MLN4924 or thalidomide, 18 h)	concentration range degrading BRD4 long and short (BRD4 long and short; HEK293 cell line, 18 h treatment) [nM]	solubility (qualitative remark) (Solubility)
–	–	–	–	–	–	–	–	–	–	CC1=CC(C)=[N+]2C1=C(CCC(=O)N1CCN(C(C#CCCO)C3CCC(NC(=O)CCOCCOCCNC(=O)c4ccc5c(c4)C(=O)N(C4CCC(=O)NC4=O)C5=O)CC3)CC1)c1c(C)cc(C)n1[B-]2(F)F (stereo not shown) [Compound 4c]	166 ± 3.5	–	–	–
1.4	low permeability and Low	0.007	0.01	89.4	Not-Substrate	6.64	209	low solubility	–	Cc1sc2c(c1C)C(c1ccc(Cl)cc1)=N[C@@H](CC(=O)NCCNC(=O)c1ccc(SCCC#CC(C3CCOCC3)N3CCC(NC(=O)COc4cccc5c4C(=O)N(C4CCC(=O)NC4=O)C5=O)CC3)cc1)c1nnc(C)n1-2 (stereo partly shown) [Compound 7a]	–	reversed	300 to 1000	–
–	–	–	–	–	–	–	–	–	> 1000	Cc1ncsc1-c1ccc(CNC(=O)[C@@H]2C[C@@H](O)CN2C(=O)[C@@H](NC(=O)CCCCC(=O)NC2CCN(C(C#CCCSc3ccc(C(=O)NCCNC(=O)C[C@@H]4N=C(c5ccc(Cl)cc5)c5c(sc(C)c5C)-n5c(C)nnc54)cc3)C3CCOCC3)CC2)C(C)(C)C)cc1 (stereo partly shown) [Compound 7b]	–	–	–	poor solubility; also recorded: visibly poorly soluble
–	low permeability and Low	< 0.1	< 0.1	–	–	17.5	79.1	low solubility	> 1000	Cc1sc2c(c1C)C(c1ccc(Cl)cc1)=N[C@@H](CC(=O)NCC#CC(C1CCN(C(=O)COc3cccc4c3C(=O)N(C3CCC(=O)NC3=O)C4=O)CC1)N1CCN(C(=O)COc3cccc4c3C(=O)N(C3CCC(=O)NC3=O)C4=O)CC1)c1nnc(C)n1-2 (stereo partly shown) [Compound 7c]	–	–	–	poor solubility

Source: article PMC11831382, “Use of Aldehyde–Alkyne–Amine Couplings to Generate Medicinal Chemistry-Relevant Linkers” (ACS Medicinal Chemistry Letters, 2025)
